Reference: patent US9238034B2, “FN14 antagonists and therapeutic uses thereof” (THE TRANSLATIONAL GENOMICS RESEARCH INSTITUTE, priority 2013, dated 2016)
Like-named read-outs stand apart in the source and are kept apart here.

Target: T1, Fn14-TWEAK binding (Homo sapiens, UniProt Q9NP84)
T1 construct: the human Fc fragment-tagged Fn14 extracellular domain (R&D Systems) was captured; purchased R&D Systems (Fn14-Fc); Peprotech (recombinant TWEAK)
T1 sequence (Q9NP84 28-80 limits assumed): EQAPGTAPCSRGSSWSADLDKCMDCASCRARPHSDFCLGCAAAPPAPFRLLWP
Assay: Double sandwich ELISA small molecule screening of TWEAK binding to captured Fn14-Fc
Description: Double Sandwich ELISA. sTWEAK and sTWEAK variant proteins were synthesized as described above. The expression level of each IVTT synthesized sTWEAK protein was analyzed by western blot analysis and used in approximately equal amounts in the ELISA. To assay the binding of wild type sTWEAK and sTWEAK variants to Fn14, the human Fc fragment-tagged Fn14 extracellular domain (R&D Systems) was captured in an Immuno 96-microwell white plate by adding 100 μL of 0.025 μg/mL Fn14-Fc to wells coated with goat anti-human Fcγ fragment specific monoclonal antibody. After capture, the wells were washed 3× with Dulbecco's Phosphate Buffered Saline (DPBS) containing 0.05% Tween-20. Unbound sites were blocked by addition of 100 μL of blocking solution containing 0.05% Tween-20, 1% BSA, and 3% normal goat serum (NGS) in DPBS for 1 hr at room temperature. 0.01 μL of sTWEAK or sTWEAK variant made with the human IVTT kit or 2 μL of sTWEAK or sTWEAK variant made with the rabbit IVTT kit was diluted in 100 μL of sample diluent (DPBS+1% BSA+0.005% Tween-20) and then added to the wells for 2 hr followed by addition of 100 μL of 50 ng/mL biotinylated TWEAK detection antibody (R&D Systems) in sample diluent. Following incubation for additional 2 hr at room temperature, wells were washed 3× with DPBS containing 0.05% Tween-20 and bound biotinylated TWEAK antibody was detected by incubation with an HRP-conjugated streptavidin. The total luminescent signal was obtained using Femto ELISA kit (Pierce Biochemical) and compared to the standard curve signal obtained from the binding of 0-4000 pg/mL recombinant TWEAK (Peprotech inc) to Fn14-Fc. Using 5-parameter logistic curve fitting for standard curve analysis (Sigmaplot 11.0, SyStat Software Inc.), binding of sTWEAK or TWEAK variant to Fn14-Fc was determined. The data represents that observed for at least four replicate assays.
The small molecule screening was performed using the ELISA assay described above with minor modifications. Briefly, after capturing Fn14-Fc in the microwell plate, 80 μl of drug solution in sample diluent was added to desired wells and incubated for 2 hrs at room temperature. Subsequently, 20 μL of 2500 pg/mL (5×) TWEAK was added to each well to achieve final TWEAK concentration of 500 pg/mL and incubated for additional 2 hr at room temperature. Bound TWEAK was detected as described in the protocol above. All small molecule inhibitors were screened at 25 μM final concentration (final DMSO concentration of 0.125%) in duplicate. Cyclohexamide, a non-specific small molecule, at 25 μM concentration was used as negative control. The anti-Fn14 antibody ITEM-4, added at 2.5 μg/mL, was used as a positive control for complete blockade of TWEAK binding. Reduction in TWEAK binding due to compound addition or controls was calculated by using standard curve (Separate standard curve was obtained for every screening plate).

[1] = Table 3, first round of screening, 25 μM, average of duplicate, read-out: % Reduction in TWEAK Binding, Average
[2] = Table 3, first round of screening, 25 μM, replicate 1, read-out: % Reduction in TWEAK Binding, Data 1
[3] = Table 3, first round of screening, 25 μM, replicate 2, read-out: % Reduction in TWEAK Binding, Data 2
[4] = Table 5, 25 μM, average of duplicate, read-out: % Reduction in TWEAK Binding, Average
[5] = Table 5, 25 μM, replicate 1, read-out: % Reduction in TWEAK Binding, Data 1
[6] = Table 5, 25 μM, replicate 2, read-out: % Reduction in TWEAK Binding, Data 2
[7] = first round of screening, 25 μM, read-out: average inhibition in TWEAK-Fn14 binding
[8] = Table 4, second screening iteration, 25 μM, average of duplicate, read-out: % Reduction in TWEAK Binding, Average
[9] = Table 4, second screening iteration, 25 μM, replicate 1, read-out: % Reduction in TWEAK Binding, Data 1
[10] = Table 4, second screening iteration, 25 μM, replicate 2, read-out: % Reduction in TWEAK Binding, Data 2

Row | SMILES | inhibition at 25 µM [1] [%] | inhibition at 25 µM [2] [%] | inhibition at 25 µM [3] [%] | inhibition at 25 µM [4] [%] | inhibition at 25 µM [5] [%] | inhibition at 25 µM [6] [%] | inhibition at 25 µM [7] [%] | inhibition at 25 µM [8] [%] | inhibition at 25 µM [9] [%] | inhibition at 25 µM [10] [%] | % Reduction in TWEAK Binding, Average (Table 4, second screening iteration, 25 μM, average of duplicate) [%] | % Reduction in TWEAK Binding, Data 1 (Table 4, second screening iteration, 25 μM, replicate 1) [%] | % Reduction in TWEAK Binding, Data 2 (Table 4, second screening iteration, 25 μM, replicate 2) [%]
1 | COc1cccc(NC(=O)CSc2nnc(-c3ccc(F)cc3)c(-c3ccc(F)cc3)n2)c1 [Compound K216-0906] |  |  |  | 16.6 | 17.2 | 16 |  | 16.6 | 17.2 | 16 |  |  | 
2 | COc1cccc(NC(=O)CSc2nnc(-c3ccc(Cl)cc3)c(-c3ccc(Cl)cc3)n2)c1 [Compound K216-0957] |  |  |  | 24 | 23.8 | 24.3 |  | 24 | 23.8 | 24.3 |  |  | 
3 | O=C(CSc1nnc(-c2ccccc2)c(-c2ccccc2)n1)Nc1cccc(Cl)c1 [Compound K784-2268] |  |  |  | 17 | 24 | 10.1 |  | 17 | 24 | 10.1 |  |  | 
4 | O=C(CSc1nnc(-c2ccccc2)c(-c2ccccc2)n1)Nc1ccccc1Cl [Compound K784-2269] |  |  |  |  |  |  |  |  |  |  | 9.52 | 10.8055 | 8.234
5 | COc1cccc(NC(=O)CSc2nnc(-c3ccccc3)c(-c3ccccc3)n2)c1 [Compound K784-2273] |  |  |  | 10.5 | 10.5 |  |  | 10.5 | 10.5 |  |  |  | 
6 | O=C(NC1CC1)c1cn(-c2cccc(Cl)c2)nn1 [Compound L524-0361] |  |  |  | 15.7 | 14.7 | 16.7 |  | 15.7 | 14.7 | 16.7 |  |  | 

Other lines, results leading:

Row | inhibition at 25 µM [1] [%] | inhibition at 25 µM [2] [%] | inhibition at 25 µM [3] [%] | inhibition at 25 µM [4] [%] | inhibition at 25 µM [5] [%] | inhibition at 25 µM [6] [%] | inhibition at 25 µM [7] [%] | inhibition at 25 µM [8] [%] | inhibition at 25 µM [9] [%] | inhibition at 25 µM [10] [%] | % Reduction in TWEAK Binding, Average (Table 4, second screening iteration, 25 μM, average of duplicate) [%] | % Reduction in TWEAK Binding, Data 1 (Table 4, second screening iteration, 25 μM, replicate 1) [%] | % Reduction in TWEAK Binding, Data 2 (Table 4, second screening iteration, 25 μM, replicate 2) [%] | SMILES
7 | 20.4 | 26.3 | 14.5 | 20.4 | 26.3 | 14.5 | > 15 |  |  |  |  |  |  | O=C(CSc1nc2c(cnn2-c2ccccc2)c(=O)[nH]1)NCc1ccc2c(c1)OCO2 [Compound G873-0032]
8 | 15 | 23.1 | 6.98 | 15 | 23.1 | 6.98 | > 15 |  |  |  |  |  |  | Cc1cc(C2CCCN2C(=O)c2cc(-c3ccc4c(c3)OCO4)on2)on1 (stereo not drawn) [Compound J004-1091]
9 |  |  |  | 11.6 | 17 | 6.27 |  | 11.6 | 17 | 6.27 |  |  |  | O=C(c1cn(-c2cccc(Cl)c2)nn1)N1CCCC1 [Compound L524-0322]
10 | 11.8 | 16.2 | 7.41 | 11.8 | 16.2 | 7.41 |  |  |  |  |  |  |  | NC(=O)C1CCCN(c2nc3c(-c4ccccc4)csc3c(=O)[nH]2)C1 (stereo not drawn) [Compound Z250-1266]
11 | 13.3 | 16.6 | 9.99 | 13.3 | 16.6 | 9.99 |  |  |  |  |  |  |  | Cc1ccc(-c2csc3c(=O)[nH]c(N4CCCC(C(N)=O)C4)nc23)cc1 (stereo not drawn) [Compound Z250-1348]
